Laboratory results: the NIST ThermoML archive (doi:10.1016/j.jct.2015.05.019)
Numbers after ± are expanded uncertainties.

Columns and labels:
[1] = Crystal; DTA
[2] = Molar enthalpy of transition or fusion; settings: Crystal; DSC

Normal melting temperature [1]: 274.32 ± 0.5 °C
Molar enthalpy of transition or fusion [2]: 15.7 ± 3.11 kcal/mol
SMILES: O=c1c(-c2ccc(O)cc2)coc2cc(O[C@@H]3O[C@H](CO)[C@@H](O)[C@H](O)[C@H]3O)cc(O)c12 [genistin]
